# Results reported in ChEMBL document CHEMBL1159073, “Inhibition of IKK-beta: a new development in the mechanism of the anti-obesity effects of PTP1B inhibitors SA18 and SA32” (Bioorg Med Chem Lett, 2010).
# Calls of active or inactive are those of the source. The rule behind the calls is not given here.
# Experiments:
# [1] = tested on: Mus musculus; test: Antiobesity activity in high fat diet-induced obese C57BL/6J Jms Slc mouse model assessed as change in body weight administered through diet for 28 days (reference value: 33.4+/-2.8); assay type: functional
# [2] = tested on: Mus musculus; test: Antiobesity activity in high fat diet-induced obese C57BL/6J Jms Slc mouse model assessed as epididymal adipose tissue weight administered through diet for 28 days (reference value: 1.8+/-0.49); assay type: functional
# [3] = tested on: Mus musculus; test: Antiobesity activity in high fat diet-induced obese C57BL/6J Jms Slc mouse model assessed as retroperitoneal adipose tissue weight administered through diet for 28 days (reference value: 0.51+/-0.11); assay type: functional
# [4] = tested on: Mus musculus; test: Antiobesity activity in high fat diet-induced obese C57BL/6J Jms Slc mouse model assessed as blood triglyceride level administered through diet for 28 days (reference value: 63+/-32); assay type: functional
# [5] = tested on: Mus musculus; test: Antiobesity activity in high fat diet-induced obese C57BL/6J Jms Slc mouse model assessed as blood total cholesterol level administered through diet for 28 days (reference value: 141+/-10); assay type: functional
# [6] = tested on: Mus musculus; test: Antiobesity activity in high fat diet-induced obese C57BL/6J Jms Slc mouse model assessed as blood nonesterified free fatty acid level administered through diet for 28 days (reference value: 0.35+/-0.09); assay type: functional
# [7] = tested on: 3T3-L1; test: Inhibition of IkappaB-alpha degradation in LPS-stimulated mouse 3T3L1 cells at 50 uM pretreated 30 mins before LPS containing cytokine mixture challenge measured after 30 mins by Western blotting; assay type: functional, cell-based
# [8] = tested on: 3T3-L1; test: Inhibition of IkappaB-alpha degradation in LPS-stimulated mouse 3T3L1 cells at 50 uM pretreated 30 mins before LPS containing cytokine mixture challenge measured after 60 mins by Western blotting; assay type: functional, cell-based
# [9] = species: Mus musculus; test: Inhibition of IkappaB-alpha degradation in LPS-stimulated mouse […] cells at 50 uM pretreated 30 mins before LPS containing cytokine mixture challenge measured by Western blotting; assay type: functional
# [10] = target: T1, Inhibitor of nuclear factor kappa-B kinase subunit beta (Homo sapiens, UniProt O14920); test: Inhibition of IKK-beta by tome resolved fluorescence assay
# T1 sequence (O14920 whole entry): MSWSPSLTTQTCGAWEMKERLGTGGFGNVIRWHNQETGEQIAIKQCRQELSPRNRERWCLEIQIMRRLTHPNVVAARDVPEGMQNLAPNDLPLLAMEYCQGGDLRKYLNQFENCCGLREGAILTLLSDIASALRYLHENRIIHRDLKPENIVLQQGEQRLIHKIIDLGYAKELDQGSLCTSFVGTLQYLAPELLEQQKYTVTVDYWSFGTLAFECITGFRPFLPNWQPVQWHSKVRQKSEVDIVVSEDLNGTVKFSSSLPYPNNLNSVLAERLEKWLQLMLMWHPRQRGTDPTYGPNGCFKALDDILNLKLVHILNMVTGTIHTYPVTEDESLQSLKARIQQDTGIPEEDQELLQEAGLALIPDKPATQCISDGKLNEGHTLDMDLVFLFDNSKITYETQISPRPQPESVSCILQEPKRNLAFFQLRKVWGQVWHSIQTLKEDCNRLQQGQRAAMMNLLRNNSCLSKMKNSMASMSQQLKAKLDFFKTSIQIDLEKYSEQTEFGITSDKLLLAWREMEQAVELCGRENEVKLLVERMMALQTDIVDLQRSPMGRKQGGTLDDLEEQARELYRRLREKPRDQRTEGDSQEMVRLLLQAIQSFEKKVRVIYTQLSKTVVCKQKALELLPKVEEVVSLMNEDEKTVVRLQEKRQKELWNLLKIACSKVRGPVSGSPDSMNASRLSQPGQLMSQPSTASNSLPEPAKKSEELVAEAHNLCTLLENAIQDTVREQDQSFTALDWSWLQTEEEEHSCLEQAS
Compound,Activity [1] [g],Activity [2] [g],Activity [3] [g],Activity [4] [mg/dL],Activity [5] [mg/dL],Activity [6] [mEq/L],inhibition [7],inhibition [8],inhibition [9],IC50 [10] [nM]
O=C(O)c1cc(-c2ccccc2)cc(Cc2cc(-c3ccccc3)cc(C(=O)O)c2O)c1O,28.9,0.83,0.26,48,133,0.14,Active,Active,Active,
O=C(O)c1cc(Cc2cc(C(=O)O)c(O)c(-c3ccccc3)c2)cc(-c2ccccc2)c1O,29.2,0.86,0.26,42,129,0.24,Active,Active,Active,
O=C(Nc1cc(Cl)cc2c1[nH]c1cnccc12)c1cccnc1,,,,,,,,,,150
